Assays:
[1] = tested on: rodent model of nociceptive pain (tail-flick test); assay: Tail-flick test after intraperitoneal administration; assay type: in vivo, rat; settings: male Sprague-Dawley rats, 5 mg/kg IP single dose, perchlorate salt, vs saline, n=6; preliminary data
Procedure: A study was performed to screen the analgesic activities of S(−) and R(+) enantiomers of nornicotine following administration by intraperitoneal route (IP) in a rodent model of nociceptive pain. The responses to acute thermal stimuli were determined using the tail-flick test [D′Amour F. E., Smith D. L. “A method for determining loss of pain sensation” J Pharmacol Exp Ther (1941), 72:74-79]. Tail-flick latency (TFL) was measured by recording the time from the onset of the heat stimulus to the tail to withdrawal of the tail from the heat source, using a standard tail-flick apparatus (EMDIE, Instrument Co., Roanoke, Va.). The sensitivity of the instrument was adjusted to provide an average baseline 2-3 seconds. Cut-off time of 10 s was used to avoid tail damage.
A single dose [5 mg/kg in perch salt form (perchlorate)] of each nornicotine enantiomer was administered (IP) in 6 male rats [Sprague-Dawley; about 90 days old, 350 g, (Harlan, Indianapolis, Ind.)]. Saline (vehicle, 1 ml/kg) served as control. TFL were determined prior to (twice, 15 min apart) and at 5, 15, 30, 45 and 60 min after i.p. administration. Data were presented as time courses of TFL (normalized for pre-injection baseline, s) [FIG. 1A] and areas under the curves (AUC0-60min) [FIG. 1B].

[2] = tested on: rodent model of chronic inflammatory pain (formalin test); assay: Formalin test (intra-plantar formalin) after intraperitoneal administration; assay type: in vivo, rat; settings: male rats, 5 mg/kg IP fumarate salt, 15 min prior to formalin, n=6; for formalin-induced flinching, late (tonic) phase 20-60 min: significantly different from saline P<0.05
Procedure: A study was performed to screen the analgesic activities of S(−) and R(+) enantiomers of nornicotine following administration by intraperitoneal route (IP) in a rodent model of chronic inflammatory pain (formalin test). Intra-plantar injection of formalin produces a biphasic behavioral response consisting of flinching, lifting and licking behaviors in rodents. The first phase (acute, 0-20 min) results from direct stimulation of nociceptors (nociceptive pain) whereas the second phase (tonic, 20-60 min) involves central sensitization (a characteristic of neuropathic pain). Accordingly, the formalin test was used to determine the analgesic effects of S(−)- and R(+)-nornicotine [Wheeler-Aceto H., Covan A. “Standardization of the rat formalin test for the evaluation of analgesics” Psychopharmacology (1991) 104:35-44]. Formalin (50 mcl) was injected subcutaneously (SC) into the dorsal surface of the hind paw. The rat was placed in a Plexiglas cage and the intensity of pain (number of formalin-induced flinches) was rated in 5 min intervals for 60 min.
A single dose [5 mg/kg in salt form (fumarate)] of each nornicotine enantiomer and saline (control) was administered (IP) 15 min prior to formalin (SC) injection in 6 male rats. Data were presented as time courses of formalin-induced flinches (number) for S(−)-nornicotine, R(+)-nornicotine and saline [FIG. 4A] and areas under the curves (AUC) calculated for phase 1 (acute, 0-20 min) [FIG. 4B] and phase 2 (tonic, 20-60 min) [FIG. 4C].

[3] = tested on: rodent model of nociceptive pain (tail-flick test); assay: Tail-flick test after intrathecal administration; assay type: in vivo, rat; settings: male rats, 10 mcg IT single dose, perchlorate salt, n=5, P<0.05 post-hoc SNK
Procedure: A study was performed to screen the analgesic activities of S(−) and R(+) enantiomers of nornicotine following administration by intrathecal route (IT) in a rodent model of nociceptive pain (tail-flick test).
In order to inject these drugs via the IT route chronic catheterization of the spinal subarachnoid space was performed in rats [Yaksh T., Rudy T. “Chronic catheterization of the spinal subarachnoid space” Physiol Behav (1976) 17:1031-1036 (with minor modification)]. Briefly, a 21 cm long P-10 polyethylene tubing (volume 10 mcl) which extended 8.5 cm beyond an incision in the atlanto-occipital membrane was secured to the scull with acrylic cement. The catheter rested in the vicinity of T-12 at the rostral face of the lumbar cord enlargement. The studies were initiated 1 week after implantation of the IT catheter.
A single dose [10 mcg in perch salt form (perchlorate)] of each enantiomer was administered (IT) in 5 male rats. Saline (vehicle; 10 mcl) was used as control. The responses to acute thermal stimuli were determined using the tail-flick test (baseline 2-3 seconds, cut-off 10 seconds). TFL were measured prior to (twice, 15 min apart) and at 5, 10, 15, 30, 45 and 60 min after IT administration. Data were presented as time courses of TFL (normalized for pre-injection baseline, s) [FIG. 2A] and areas under the curves (AUC0-60min) [FIG. 2B].

[4] = tested on: rodent model of nociceptive pain (paw withdrawal test); assay: Thermal paw withdrawal test after intraperitoneal administration; assay type: in vivo, rat; settings: male rats, 2.5, 5 and 10 mg/kg IP, free base, n=8; P<0.05 1-way ANOVA
Procedure: To further characterize the analgesic properties of S(−)nornicotine, a dose-response relationship was determined. Responsiveness to acute thermal noxious stimuli was assessed by a thermal paw withdrawal test [Hargreaves K. et al., “A new sensitive method for measuring thermal nociception in cutaneous hyperalgesia” Pain (1988) 32:77-88]. This test, which uses a ramp heat stimulus on the plantar surface of the paw, appears to generate more consistent analgesic responses to nicotinic drugs as compared to tail flick test. Plantar Stimulator Analgesia Meter (11TC, Life Science, Woodland Hills, Calif.) was used. Briefly, the rat was placed in a clear plastic chamber and allowed to acclimate for 5 min. After the acclimation period, the radiant heat was positioned under the glass floor directly beneath the plantar hind paw. The heat source activated a timer that was controlled by a photocell. The hind paw withdrawal interrupted the photocell and automatically stopped the timer. Latency to paw withdrawal (PWL) was measured to the nearest 0.1 s. […]
S(−)-Nornicotine was administered in three doses (2.5, 5 and 10 mg/kg in form of free base) via the IP route in 8 male rats. […] Responses (PWL, s) were measured prior to and at 5, 10, 15, 30, and 60 min after IP injection. For each rat and at each time point, response was normalized for baseline measured on the day of experiment. […]

[5] = humans; cited from earlier work
[6] = following peripheral administration of nicotine; cited from earlier work
[7] = in vivo; cited from earlier work
[8] = following repeated nicotine dosing; cited from earlier work

| Compound | analgesic effect (tail-flick latency, AUC0-60min) [1] | formalin-induced flinching, early (acute) phase 0-20 min [2] | formalin-induced flinching, late (tonic) phase 20-60 min [2] | analgesic effect (tail-flick latency, AUC0-60min) vs the other enantiomer [3] | analgesic effect (tail-flick latency, AUC0-60min) vs saline ([3]; preliminary data) | analgesic effect (paw withdrawal latency, AUC0-60min vs log dose) [4] | potency and toxicity profile compared to R(+)-nornicotine (Dose escalation studies) | plasma half-life [5] [h] | residence in the rat's brain [6] [min] | oral bioavailability [7] [%] | accumulation in brain compared to nicotine [8] | oral bioavailability (in words) [7] |
| --- | --- | --- | --- | --- | --- | --- | --- | --- | --- | --- | --- | --- |
| c1cncc([C@H]2CCCN2)c1 [R(+)-nornicotine] | less pronounced | Neither enantiomer had significant effect | attenuated formalin-induced flinching |  |  |  |  |  |  |  |  |  |
| c1cncc([C@@H]2CCCN2)c1 [S(−)-nornicotine] | significantly greater as compared to saline | Neither enantiomer had significant effect | attenuated formalin-induced flinching | significantly greater as compared to R(+)-nornicotine | significantly greater as compared to saline | significantly related to dose | more favorable potency and toxicity profile |  |  |  |  |  |
| CN1CCCC1c1cccnc1 (centres unmarked) [nicotine, reference compound] |  |  |  |  |  |  |  | 1 | 52 | 10 |  |  |
| Nornicotine |  |  |  |  |  |  |  | 8 | 166 |  | about 4 fold | good oral bioavailability |

From patent US20100216847A1, “N[…] THE TREATMENT OF PAIN” (UNIVERSITY OF KENTUCKY RESEARCH FOUNDATION, priority 2006, published 2010)
